From ChEMBL document CHEMBL5154833, “New N-aryl-N'-aryl-/(thio)ureido-/sulfamoylamino-derivatives of alkyl/alkylcarbamoyl piperazines: Effect of structural modifications on selectivity over 5-HT1A receptor” (Eur J Med Chem, 2022) come the findings set out here.

The term Ki denotes a measure of affinity in units of concentration, obtained from inhibition or displacement. By inhibition is commonly meant the change of the read-out against control, counted positive when it falls. High values mean a response far below the control, low ones a response near the control. Usually Kb stands for the equilibrium dissociation constant of an antagonist, usually derived from a functional assay. High values mean a less potent antagonist, low ones a more potent antagonist.

SMILES strings stand for the structures.

Data set [1] has as its target 5-hydroxytryptamine receptor 7 (Homo sapiens, UniProt P34969). The data set can be described thus: Displacement of [3H]-5-CT from human full length 5HT7BR expressed in HEK293 cells by radioligand binding assay. Type of data set: cell-based. For orientation: Displacement assays read how much labelled ligand stays bound in the presence of the test substance.
The target in data set [2] is 5-hydroxytryptamine receptor 2A (Homo sapiens, UniProt P28223). Briefly: Displacement of [3H]-ketanserin from 5-HT2AR (unknown origin) expressed in CHO-K1 cells by radioligand binding assay. Type of data set: cell-based.
Data set [3] deals with T1, 5-hydroxytryptamine receptor 1A (Homo sapiens, UniProt P08908).
T1 sequence (P08908 whole entry): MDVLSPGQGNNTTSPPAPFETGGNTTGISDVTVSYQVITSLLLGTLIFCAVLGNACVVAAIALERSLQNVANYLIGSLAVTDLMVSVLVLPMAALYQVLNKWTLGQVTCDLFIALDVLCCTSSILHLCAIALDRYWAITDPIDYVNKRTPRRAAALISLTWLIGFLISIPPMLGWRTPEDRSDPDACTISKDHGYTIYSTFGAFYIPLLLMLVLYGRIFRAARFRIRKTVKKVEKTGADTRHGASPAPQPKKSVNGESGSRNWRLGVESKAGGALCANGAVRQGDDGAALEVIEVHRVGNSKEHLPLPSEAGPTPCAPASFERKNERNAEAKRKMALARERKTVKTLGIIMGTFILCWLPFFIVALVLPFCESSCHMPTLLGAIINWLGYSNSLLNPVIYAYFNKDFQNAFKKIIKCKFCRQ
Briefly: Displacement of [3H]-[…] from human full length 5-HT1AR expressed in HEK293 cells by radioligand binding assay. The format is cell-based.

For data set [4], the target named is T2, 5-hydroxytryptamine receptor 6 (Homo sapiens, UniProt P50406). Briefly: Displacement of [3H]-LSD from human full length 5HT6R expressed in HEK293 cells by radioligand binding assay. Type of data set: cell-based.
For data set [5], the target named is T3, D(2) dopamine receptor (Homo sapiens, UniProt P14416). Briefly: Displacement of [3H]-raclopride from human full length D2L receptor expressed in HEK293 cells by radioligand binding assay. Type of data set: cell-based.
For data set [6], the species on record is Homo sapiens. The data set can be described thus: Selectivity ratio of Ki for human full length D2L receptor expressed in HEK293 cells to Ki for human full length 5-HT1AR expressed in HEK293 cells. Type of data set: cell-based.
Data set [7] deals with T2, 5-hydroxytryptamine receptor 6. The data set can be described thus: Binding affinity to 5-HT6R (unknown origin) assessed as inhibition constant.
Data set [8] concerns the target T3, D(2) dopamine receptor. The data set can be described thus: Binding affinity to D2L receptor (unknown origin) assessed as inhibition constant.
Data set [9] has as its target T1, 5-hydroxytryptamine receptor 1A. The data set can be described thus: Binding affinity to 5-HT1AR (unknown origin) assessed as inhibition constant.
Data set [10] is described as follows: Permeability coefficient of the compound in PBS buffer at pH 7.4 incubated for 5 hrs by PAMPA-based LC-MS analysis. To be noted: read-out: Kp. The format is ADME.
A short description of data set [11]: Metabolic stability in mouse liver microsomes assessed as parent compound remaining at 50 uM measured after 120 mins by UPLC-MS analysis. To be noted: read-out: Stability. Type of data set: ADME, Microsome. For orientation: Liver microsomes are vesicles of endoplasmic reticulum, rich in cytochrome P450 enzymes.
Data set [12] can be described thus: Hepatotoxicity in human HepG2 cells assessed as reduction in cell viability at 50 to 100 uM incubated for 72 hrs by MTS assay. Type of data set: toxicity, cell-based. To be noted: hepg2, 72 h, dose 50-100 µM. A general note: Formazan colour is commonly taken as a measure of viable cells.
Data set [13] is described as follows: Hepatotoxicity in human HepG2 cells at 1 to 10 uM incubated for 72 hrs by MTS assay. The format is toxicity, cell-based. Conditions: hepg2, 72 h, dose 1-10 µM.
The target in data set [14] is CYP3A4 (Homo sapiens, UniProt P08684). The data set can be described thus: Inhibition of CYP3A4 (unknown origin) at 10 uM by luminescence based Glo assay. Type of data set: ADME. Conditions: CYP3A4 enzyme (unknown origin).
For data set [15], the target named is T1, 5-hydroxytryptamine receptor 1A. The data set can be described thus: Displacement of [3H]-[…] from human 5-HT1AR in human brain tissue by radioligand binding assay. The format is tissue-based.
The target in data set [16] is T4, 5-hydroxytryptamine receptor 1A (Homo sapiens) (UniProt P08908).
T4 sequence (whole entry): T1 sequence (P08908 whole entry)
Briefly: Binding affinity to human full length 5-HT1AR expressed in HEK293 cells by Cheng-Prusoff equation analysis. Type of data set: cell-based. To be noted: filed as antagonist.

T3 sequence (P14416 whole entry): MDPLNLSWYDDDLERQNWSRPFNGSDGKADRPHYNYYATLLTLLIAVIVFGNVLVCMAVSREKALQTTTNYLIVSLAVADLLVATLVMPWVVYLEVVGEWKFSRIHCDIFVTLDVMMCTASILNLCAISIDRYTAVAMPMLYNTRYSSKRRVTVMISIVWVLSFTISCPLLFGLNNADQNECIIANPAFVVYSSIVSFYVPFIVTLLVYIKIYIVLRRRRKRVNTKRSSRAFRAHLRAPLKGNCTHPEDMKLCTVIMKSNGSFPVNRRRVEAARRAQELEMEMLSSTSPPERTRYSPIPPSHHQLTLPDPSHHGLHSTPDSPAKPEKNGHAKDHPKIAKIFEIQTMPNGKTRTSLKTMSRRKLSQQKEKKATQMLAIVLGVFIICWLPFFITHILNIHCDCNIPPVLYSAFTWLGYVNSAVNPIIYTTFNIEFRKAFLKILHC
Sequence of 5-hydroxytryptamine receptor 2A (P28223 whole entry): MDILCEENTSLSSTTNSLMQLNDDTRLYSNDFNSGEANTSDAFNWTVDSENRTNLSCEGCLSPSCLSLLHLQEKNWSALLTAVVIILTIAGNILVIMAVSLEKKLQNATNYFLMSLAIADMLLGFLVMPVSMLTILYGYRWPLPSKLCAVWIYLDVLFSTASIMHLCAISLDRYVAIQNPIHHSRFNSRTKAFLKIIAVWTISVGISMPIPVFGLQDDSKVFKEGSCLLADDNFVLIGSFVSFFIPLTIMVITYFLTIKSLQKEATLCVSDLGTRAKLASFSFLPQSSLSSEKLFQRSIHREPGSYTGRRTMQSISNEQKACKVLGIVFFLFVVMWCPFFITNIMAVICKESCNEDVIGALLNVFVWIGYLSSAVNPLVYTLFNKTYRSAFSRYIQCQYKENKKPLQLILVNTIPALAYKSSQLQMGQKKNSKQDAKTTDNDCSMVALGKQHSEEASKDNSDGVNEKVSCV
T2 sequence (P50406 whole entry): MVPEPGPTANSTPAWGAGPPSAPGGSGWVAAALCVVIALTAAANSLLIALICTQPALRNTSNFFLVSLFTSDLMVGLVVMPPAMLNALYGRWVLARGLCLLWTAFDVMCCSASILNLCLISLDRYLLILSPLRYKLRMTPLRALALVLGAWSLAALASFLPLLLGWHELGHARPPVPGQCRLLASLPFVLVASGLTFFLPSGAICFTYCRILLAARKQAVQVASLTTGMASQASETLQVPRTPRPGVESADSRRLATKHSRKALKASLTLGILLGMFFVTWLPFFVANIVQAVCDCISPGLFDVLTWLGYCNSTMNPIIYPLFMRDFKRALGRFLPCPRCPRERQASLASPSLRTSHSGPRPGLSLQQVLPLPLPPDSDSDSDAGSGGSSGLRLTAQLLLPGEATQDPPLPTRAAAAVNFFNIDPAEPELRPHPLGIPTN
Sequence of 5-hydroxytryptamine receptor 7 (P34969 whole entry): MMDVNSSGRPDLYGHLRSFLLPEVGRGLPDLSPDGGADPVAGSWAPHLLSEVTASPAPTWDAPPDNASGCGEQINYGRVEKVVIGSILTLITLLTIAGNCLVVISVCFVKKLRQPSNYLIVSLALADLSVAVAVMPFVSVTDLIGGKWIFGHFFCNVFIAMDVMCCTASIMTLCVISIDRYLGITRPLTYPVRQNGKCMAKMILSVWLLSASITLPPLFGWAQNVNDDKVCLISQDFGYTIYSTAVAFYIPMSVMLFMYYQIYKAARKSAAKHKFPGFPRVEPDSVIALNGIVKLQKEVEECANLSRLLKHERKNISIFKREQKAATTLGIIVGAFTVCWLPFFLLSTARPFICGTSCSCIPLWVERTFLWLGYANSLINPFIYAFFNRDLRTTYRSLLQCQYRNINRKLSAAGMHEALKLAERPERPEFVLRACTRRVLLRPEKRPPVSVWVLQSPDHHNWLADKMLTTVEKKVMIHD
Sequence of CYP3A4 (P08684 whole entry): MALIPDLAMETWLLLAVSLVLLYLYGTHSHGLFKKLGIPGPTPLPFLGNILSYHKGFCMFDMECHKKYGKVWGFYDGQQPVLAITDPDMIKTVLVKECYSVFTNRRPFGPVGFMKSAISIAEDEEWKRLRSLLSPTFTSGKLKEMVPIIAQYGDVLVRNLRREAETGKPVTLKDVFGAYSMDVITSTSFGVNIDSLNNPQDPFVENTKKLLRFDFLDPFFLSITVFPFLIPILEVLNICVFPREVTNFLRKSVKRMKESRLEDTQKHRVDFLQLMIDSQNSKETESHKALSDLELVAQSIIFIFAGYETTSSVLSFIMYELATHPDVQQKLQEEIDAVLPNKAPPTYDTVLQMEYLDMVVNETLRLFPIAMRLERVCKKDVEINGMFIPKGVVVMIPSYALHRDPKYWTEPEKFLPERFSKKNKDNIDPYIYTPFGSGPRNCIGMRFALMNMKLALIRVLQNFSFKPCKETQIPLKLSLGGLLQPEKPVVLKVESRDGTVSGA

With `NC(=O)NCCCCCCN1CCN(c2cccc(Cl)c2)CC1`, the Ki in data set [1] stood at 183 nM; in data set [2], 195 nM; in [3], 39 nM; in data set [4], 4930 nM; in data set [5], 235 nM.
The matching figures for `O=c1n(CCCCCCN2CCN(c3cccc4ccccc34)CC2)nc2ccccn12`: 186 nM, 223 nM, 6 nM, 285 nM and 32 nM.
Turning to `O=S1(=O)N(CCCCCCN2CCN(c3cccc(Cl)c3)CC2)c2cccc3c2N1CCC3`, the Ki in data set [1] amounted to 162 nM; in data set [2], 282 nM; in [3], 70 nM; in [4], 1690 nM; in data set [5] it was 253 nM.
For the compound `O=c1n(CC2CCC(CN3CCN(c4cccc(Cl)c4)CC3)CC2)nc2ccccn12` (stereo not given), the Ki in data set [1] stood at 257 nM; in data set [2], 493 nM; in data set [3] it was 31 nM; in [4], 4580 nM; in data set [5], 559 nM. The Ratio Ki in [6] worked out at 18.
In the case of `Clc1cccc(N2CCNCC2)c1` [CHLOROPHENYLPIPERAZINE], the Ki was 1750 nM in data set [7], more than 10 µM in data set [8] and 42 nM in [9].
As for `O=C(NCCCCCCn1nc2ccccn2c1=O)N1CCN(c2cccc(Cl)c2)CC1`, the Ki is 462 nM in data set [1]; 530 nM in data set [2]; 35 nM in data set [3]; 2550 nM in data set [4]; 1940 nM in data set [5]. Also, the Papp at 5 h in data set [10] is 2.9 ×10⁻⁶ cm/s. Further, in data set [11], the remaining at 2 h, 50 µM was determined as 0%. Further, in data set [6], the Ratio Ki was found to be 55. In addition, the figures for the Activity entry in [12] and in [13] were “Toxic” and “Non-Toxic”, respectively. This compound had an inhibition at 10 µM in [14] of 75%.
`O=c1n(Cc2ccc(CN3CCN(c4ccc(Cl)cc4)CC3)cc2)nc2ccccn12`: the Ki in [1] turned out to be 201000 nM; in data set [2] it was 1450 nM; in [3], 467 nM; in data set [4], 2140 nM; in [5], 1390 nM.
As to `O=c1[nH]c2ccccc2n1CCN1CCN(c2cccc(C(F)(F)F)c2)CC1` [FLIBANSERIN], the Ki in data set [15] is 11.8 nM.
With `NC(=O)N1CCN(c2cccc(Cl)c2)CC1`, the Ki in data set [1] came out at 22800 nM; in [2], 32400 nM; in data set [3] it was 7010 nM; in [4] it was 7490 nM; in data set [5], 116000 nM.
For the compound `O=c1n(CCCCCCN2CCN(c3cccc4cccnc34)CC2)nc2ccccn12`, the Ki in data set [1] was found to be 655 nM; in data set [2] it was 2200 nM; in data set [3], 3 nM; in data set [4], 4140 nM; in data set [5], 143 nM. In data set [16], the Kb came out at 3.6 nM.
Turning to `S=c1n(CCCCCCN2CCN(c3cccc(Cl)c3)CC2)c2cccc3c2n1CCC3`, the Ki amounted to 171 nM in data set [1]; 258 nM in data set [2]; 206 nM in data set [3]; 582 nM in data set [4]; 85 nM in data set [5].
Consider `O=c1n(CCCCCCN2CCN(c3cccc(Cl)c3Cl)CC2)nc2ccccn12`, for which the Ki stood at 243 nM in [1]; 47 nM in [2]; 7 nM in data set [3]; 299 nM in data set [4]; 9 nM in [5].
For `O=c1n(CCCCCCN2CCN(c3cccc4c3OCCO4)CC2)nc2ccccn12`, the Ki was 271 nM in [1]; 434 nM in [2]; 1 nM in data set [3]; 2840 nM in data set [4]; 60 nM in data set [5]. For the same compound, the Ratio Ki in data set [6] turned out to be 60. The compound also returned a Kb in [16] of 2 nM.
`Cn1c(=O)c2c(ncn2C)n(C)c1=O` [CAFFEINE]: the Papp at 5 h in [10] is 12.2 ×10⁻⁶ cm/s.
In the case of `O=c1n(Cc2ccc(CN3CCN(c4cccc(Cl)c4)CC3)cc2)nc2ccccn12`, the inhibition constant Ki in data set [1] was 3470 nM; in data set [2], 1070 nM; in [3], 52 nM; in [4] it was 1160 nM; in data set [5], 148 nM.
For `O=c1n(CCCCCCN2CCN(c3cccc(C(F)(F)F)c3)CC2)nc2ccccn12` the same measures were 1070 nM, 291 nM, 17 nM, 404 nM and 62 nM.
The matching figures for `O=c1n(CCCCCCN2CCN(c3cccc(Cl)c3)CC2)c2cccc3c2n1CCC3`: 61 nM, 66 nM, 74 nM, 1140 nM and 18 nM.
For `NS(=O)(=O)NCCCCCCN1CCN(c2cccc(Cl)c2)CC1` the same measures were 167 nM, 329 nM, 21 nM, 1530 nM and 229 nM.
